{"source": "patent US9855285B2", "about": "“Method of inhibiting the expression of IL-22 in activated T-cells” (LEO PHARMA A/S, priority 2012, dated 2018)", "key": {"[1]": {"tested_on": "human Th1/Th17 cells", "test": "In vitro assay using activated human T-cells differentiated into Th1/Th17 cells; cytokines released in the supernatant", "assay_type": "cell-based", "description": "CD4+ T cells were first negatively isolated from human peripheral blood of healthy donors using RosetteSep® separation system from STEMCELL.\nSubsequently, CD4+ T cells were activated by crosslinking the cell surface proteins CD3 and CD28 with specific antibodies.\nTo induce Th1/Th17 differentiation, activated CD4+ T cells were then cultured in flasks at density of 2-5×10^6 cells per ml of culture in X-VIVO 15 serum-free medium in presence of growth and differentiation factors cocktail, containing the following: • rhIL-2 at 10 ng/ml • rhTGF-β at 10 ng/ml • rhIL-1β at 10 ng/ml • rhIL-6 at 10 ng/ml • rhIL-23 at 20 ng/ml • Antibody anti-IL-4 at 1 μg/ml • Antibody anti-IL-13 at 1 μg/ml\nCulture media had been refreshed every second day and T cells were cultured up to 5-7 days to allow a complete differentiation into Th1/Th17 cells.\nOnce the T cells are differentiated into Th1/Th17 cells, cells are rinsed from the differentiation media and placed in assay media (X-VIVO 15 media containing 10 ng/ml rhIL-2 only) at the final concentration of 1-1.5×10^6 cells/ml in wells with 0.250 ml cell suspension per well (0.25-0.375×10^6 cells/well/sample) with and without test compound treatment for 24 hours. At the termination time point, the effect of anti-inflammatory drugs is assessed by measuring the level of phenotype related cytokines released in the cell culture supernatants. Duplicates and cells from different donors are used for each treatment.\nAfter differentiation for 5-6 days, all the cells were carefully washed and placed in growth media containing IL-2 (X-VIVO+10 ng/ml IL-2) at a final concentration of 1-1.5×10^6 cells/ml. […] Assays were performed in duplicates and included undifferentiated human T cells (negative control) and treated or untreated differentiated human Th1/Th17 cells. All cells were cultured under similar conditions in assay media containing 0.1% DMSO with or without test compounds.\nTh1/Th17 cells were treated for 24 hours with or without test compounds.\nSupernatants were collected from all samples and assessed for cytokine expression (IL-6, IL-8, IL-17, IL-22 and TNF-α). All cytokines were measured (as pg/ml) using MSD kits except IL-22 which was measured by ELISA.\nData analysis and graphs were made in Excel or GraphPad Prism. Statistical analysis was made using 1 way ANOVA corrected by Dunnett's Multiple Comparison Test."}, "[2]": {"tested_on": "keratinocyte proliferation", "conditions": "cited from earlier work"}, "[3]": {"conditions": "PDE4 inhibitor 1 μM alone or in combination with calcipotriol 100 nM"}, "[4]": {"conditions": "test compound alone, 24 hours, ELISA"}, "[5]": {"conditions": "vitamin D analogue 100 nM in combination with Compound A 1 μM"}}, "note": "Entries after “also recorded” stand apart in the source; their conditions may differ.", "data": [{"smiles": "N#Cc1ccc(Oc2ccc3c(c2)COB3O)cc1", "note": "[AN2728, 4-(1-hydroxy-1,3-dihydro-2,1-benzoxaborol-5-yloxy)benzonitrile]", "values": [{"measurement": "expression and secretion of IL-22", "setting": "[1]; [3]", "result": "comparable efficacy to Compound A"}]}, {"smiles": "CCCNC(=O)COc1c(C(=O)Cc2ccnc(Cl)c2Cl)ccc(OC)c1OC", "note": "[Compound A, 2-{6-[2-(2,3-dichloropyridin-4-yl)acetyl]-2,3-dimethoxyphenoxy}-N-propylacetamide]", "values": [{"measurement": "expression of IL-22", "setting": "[1]; PDE4 inhibitor 1 μM alone, compared to vehicle treated control", "result": "increases"}, {"measurement": "expression of IL-6", "setting": "[1]; test compound alone, 24 hours", "result": "weakly; also recorded: significantly inhibits"}, {"measurement": "expression of IL-8", "setting": "[1]; test compound alone, 24 hours", "result": "did not have any effect"}, {"measurement": "expression of IL-17", "setting": "[1]; test compound alone, 24 hours", "result": "to some degree"}, {"measurement": "expression of TNFα", "setting": "[1]; test compound alone, 24 hours", "result": "strongly decreased; also recorded: significantly inhibits"}, {"measurement": "expression of IL-22", "setting": "[1]; [4]", "result": "dose-dependent upregulation; also recorded: increased; also recorded: significantly increases"}]}, {"smiles": "COc1cccc(Nc2c(C(N)=O)cnc3c(C)cc(S(=O)(=O)c4cccc(C(=O)N(C)C)c4)cc23)c1.Cl", "note": "[GSK256066, 6-[3-(N,N-dimethylcarbamoyl)phenylsulfonyl]-4-(3-methoxyphenylamino)-8-methylquinoline-3-carboxamide hydrochloride]", "values": [{"measurement": "expression and secretion of IL-22", "setting": "[1]; [3]", "result": "comparable efficacy to Compound A"}]}, {"smiles": "O=C(Nc1c(Cl)cncc1Cl)c1ccc(OC(F)F)c(OCC2CC2)c1", "note": "[Roflumilast, 3-(cyclopropylmethoxy)-N-(3,5-dichloropyridin-4-yl)4-(difluoromethoxy)benzamide]", "values": [{"measurement": "expression and secretion of IL-22", "setting": "[1]; [3]", "result": "comparable efficacy to Compound A"}]}, {"smiles": "CCOc1ccc(-c2nc(-c3cccc(C(=O)O)n3)cs2)cc1OCC", "note": "[Tetomilast, 6-[2-(3,4-diethoxyphenyl)thiazol-4-yl]pyridine-2-caboxylic acid]", "values": [{"measurement": "expression and secretion of IL-22", "setting": "[1]; [3]", "result": "comparable efficacy to Compound A"}]}, {"smiles": "C=C1/C(=C\\C=C2/CCC[C@]3(C)[C@@H]([C@H](C)/C=C/[C@@H](O)C4CC4)CC[C@@H]23)C[C@@H](O)C[C@@H]1O", "note": "[calcipotriol, Calcipotriol]", "values": [{"measurement": "concentration required to affect keratinocyte proliferation", "setting": "[2]", "result": 28, "unit": "nM"}, {"measurement": "upregulation of IL-22 expression", "setting": "[1]; calcipotriol 10 pM together with Compound A 1 μM", "result": "lost"}, {"measurement": "upregulation of IL-22 expression", "setting": "[1]; calcipotriol 100 pM together with Compound A 1 μM", "result": "inhibited the upregulation"}, {"measurement": "upregulation of IL-22 expression", "setting": "[1]; calcipotriol 500 pM together with Compound A 1 μM", "result": "inhibited the upregulation"}, {"measurement": "upregulation of IL-22 expression", "setting": "[1]; calcipotriol 1 nM together with Compound A 1 μM", "result": "inhibited the upregulation"}, {"measurement": "upregulation of IL-22 expression", "setting": "[1]; calcipotriol 100 nM together with Compound A 1 μM", "result": "inhibited the upregulation"}, {"measurement": "expression of IL-6", "setting": "[1]; test compound alone, 24 hours", "result": "did not have any effect"}, {"measurement": "expression of IL-8", "setting": "[1]; test compound alone, 24 hours", "result": "strongly inhibited"}, {"measurement": "expression of IL-17", "setting": "[1]; test compound alone, 24 hours", "result": "to some extent"}, {"measurement": "expression of TNFα", "setting": "[1]; test compound alone, 24 hours", "result": "did not have any effect"}, {"measurement": "expression of IL-22", "setting": "[1]; [4]", "result": "strongly inhibiting; also recorded: downregulate; also recorded: strongly inhibited"}, {"measurement": "expression of IL-22", "setting": "[1]; test compound alone, 24 hours, ELISA, listed as Calcipotriol", "result": "significantly inhibits"}, {"measurement": "expression of IL-8", "setting": "[1]; test compound alone, 24 hours, listed as Calcipotriol", "result": "inhibits"}, {"measurement": "expression and secretion of IL-22", "setting": "[1]; vitamin D analogue 100 nM alone, compared to vehicle treated control", "result": "significantly inhibits"}, {"measurement": "expression and secretion of IL-22", "setting": "[1]; [5]", "result": "comparable efficacy as Calcipotriol"}]}, {"smiles": "C=C1/C(=C\\C=C2/CCC[C@]3(C)[C@@H]([C@H](C)CCCC(C)(C)O)CC[C@@H]23)C[C@@H](O)C[C@@H]1O", "note": "[calcitriol]", "values": [{"measurement": "expression of IL-22", "setting": "[1]; [4]", "result": "downregulate"}, {"measurement": "expression and secretion of IL-22", "setting": "[1]; [5]", "result": "comparable efficacy as Calcipotriol"}]}, {"smiles": "C=C1/C(=C\\C=C2/CCC[C@]3(C)[C@@H]([C@H](C)OCCC(C)(C)O)CC[C@@H]23)C[C@@H](O)C[C@@H]1O", "note": "[maxacalcitol]", "values": [{"measurement": "expression of IL-22", "setting": "[1]; [4]", "result": "downregulate"}, {"measurement": "expression and secretion of IL-22", "setting": "[1]; [5]", "result": "comparable efficacy as Calcipotriol"}]}, {"smiles": "C=C1/C(=C\\C=C2/CCC[C@]3(C)[C@@H]([C@H](C)CC[C@@H](O)C(C)C)CC[C@@H]23)C[C@@H](O)C[C@@H]1O", "note": "[tacalcitol]", "values": [{"measurement": "expression of IL-22", "setting": "[1]; [4]", "result": "downregulate"}, {"measurement": "expression and secretion of IL-22", "setting": "[1]; [5]", "result": "comparable efficacy as Calcipotriol"}]}]}
